According to patent publication US7935723B2, “Use of organic compounds” (Novartis Pharma AG, priority 2004, dated 2011):

How the values were obtained:
[1] = system: patients with Type 2 diabetes; test: Clinical study (12-week core + 40-week extension): HbA1c in patients with Type 2 diabetes on metformin; type: in vivo, human; details: over one year
Experimental: This is a 40-week extension to core study, a 12-week randomized, parallel group, multi-center, placebo-controlled trial in patients with Type 2 diabetes who are already receiving metformin at a stable dosage of 1500-3000 mg daily. Patients treated with placebo, LAF237 50 mg OD (omnia die/once a day) in addition to metformin during the core study and maintained their treatment regimen in the extension. […] All patients are randomized to receive either placebo or LAF237 (50 mg) once dally for 52 weeks in addition to metformin at an unchanged dosage. During the 4-week run-in period, all patients receive LAF237 placebo tablets and are assessed for inclusion in the study. Patients meeting the inclusion criteria at the Baseline visit receives randomized treatment once daily for 52 weeks. The total study duration for each patient is 56 weeks. Throughout the study, patients are required to maintain their prior diet and exercise habits and to continue to take metformin at an unchanged dosage. […] This is measured by using Tosoh ion exchange High Performance Liquid Chromotography (HPLC). Primus Affinity HPLC is used as a back-up method if hemoglobin variants or hemoglobin degradation peaks are observed. The primary efficacy variable is change from baseline in HbA1c at the end of the study. […]

[2] = system: patients with Type 2 diabetes; test: Clinical study: safety and tolerability, study completion; type: in vivo, human; details: 52 weeks, in combination with metformin
Description: Safety assessments consist of monitoring and recording all non-serious and serious adverse events (SAE), the regular monitoring of hematology, blood chemistry and urinalysis values, regular measurement of vital signs, the performance of physical examinations and body weight measurements. The assessment of safety is based mainly on the frequency of adverse events and on the number of laboratory values that fall outside of pre-determined ranges. Other safety data (e.g. vital signs) will be considered as appropriate.

In the case of `N#C[C@@H]1CCCN1C(=O)CNC12CC3CC(CC(O)(C3)C1)C2` [LAF237, (S)-1-[(3-hydroxy-1-adamantyl)amino]acetyl-2-cyano-pyrrolidine], the “course of HbA1c levels (in words)” value [1] is reported as “decreased significantly” and the tolerability [2] is reported as “well tolerated”.
